Measured values taken from PubChem BioAssay (NCI).
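In this assay, cells in 96-well plates receive the compound at five concentrations for 48 hours. Endpoints are linearly interpolated between the surrounding concentrations. Here, GI50 denotes the concentration required for 50% inhibition of growth. Definition used: TGI = concentration required for complete inhibition of growth.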

What was measured:
Assay in all cases: NCI-60 cell line screen, 48 h
OVCAR-3 ovarian = tested on: OVCAR-3 ovarian
HCC-2998 colon = tested on: HCC-2998 colon
SR leukemia = tested on: SR leukemia
SNB-19 CNS = tested on: SNB-19 CNS
PC-3 prostate = tested on: PC-3 prostate
HS 578T breast = tested on: HS 578T breast
EKVX NSCLC = tested on: EKVX NSCLC
DU-145 prostate = tested on: DU-145 prostate
HL-60(TB) leukemia = tested on: HL-60(TB) leukemia
KM12 colon = tested on: KM12 colon
MOLT-4 leukemia = tested on: MOLT-4 leukemia

SMILES | TGI (OVCAR-3 ovarian) [µM] | TGI (HCC-2998 colon) [µM] | TGI (SR leukemia) [µM] | TGI (SNB-19 CNS) [µM] | TGI (PC-3 prostate) [µM] | TGI (HS 578T breast) [µM] | TGI (EKVX NSCLC) [µM] | TGI (DU-145 prostate) [µM] | TGI (HL-60(TB) leukemia) [µM] | TGI (KM12 colon) [µM] | TGI (MOLT-4 leukemia) [µM] | GI50 (SR leukemia) [µM] | GI50 (HL-60(TB) leukemia) [µM] | GI50 (MOLT-4 leukemia) [µM]
N#CC(C#N)=Cn1c(=S)[nH]c2ccc([N+](=O)[O-])cc21 | > 100 | > 100 | > 100 | > 100 | > 100 | > 100 | > 100 | > 100 | > 100 | > 100 | > 100 | – | – | –
NC(=O)NC(=O)c1cccc(NC(=O)CCl)c1 | 1.44 | 1.81 | 3.92 | > 26.1 | 11.6 | > 21.7 | 26.5 | 5.42 | 1.97 | 2.43 | 15.4 | – | – | –
Cc1ccc(O)c(C(c2cc(C)ccc2O)c2cc([N+](=O)[O-])ccc2O)c1 | 25.4 | 25.5 | 39.1 | – | 21.3 | 37.9 | 32.3 | 50.3 | 11.7 | 21.2 | 35 | – | – | –
CCOC(=O)C1=NNC(C(=O)c2ccccc2)C1c1ccccc1 (stereo not drawn) | 11 | 3.92 | > 100 | 27.8 | 22.5 | 20.5 | 36.6 | 25.9 | 2.86 | 19.8 | > 34.8 | – | – | –
COC1(OC)C2C=CC1C([C@](C)(N)CO)C2 (stereo partly drawn) | > 100 | > 100 | > 100 | > 100 | > 100 | > 100 | > 100 | > 100 | > 100 | > 100 | > 100 | – | – | –
c1cc2c3ccsc3c3sccc3c2s1 | > 100 | > 100 | > 100 | – | > 100 | 71.8 | > 100 | > 100 | > 100 | > 100 | > 100 | – | – | –
CCOC(=O)CCc1ccc(NC(=O)/C=C/c2ccc([N+](=O)[O-])o2)cc1 | 2.88 | 7.61 | 0.475 | > 71.6 | > 29.9 | > 100 | > 100 | 6.39 | 0.481 | 4.43 | 0.547 | – | – | –
CCOC(=O)c1csc(-c2cn(C)c3c2C(=O)C(OC)=CC3=O)n1 | > 31.9 | > 100 | > 100 | > 100 | > 100 | > 58.8 | > 100 | 91.3 | > 100 | > 71.8 | > 100 | – | – | –
Cc1cc(S(=O)(=O)NC2=NCC(C)(C)CN2)c(S)cc1Cl | > 100 | > 100 | > 100 | > 100 | > 100 | 87.6 | > 100 | > 100 | 62.1 | > 100 | – | – | – | –
Cc1nn(C(=O)c2ccc(Cl)cc2)c2c1C(c1ccc(Cl)cc1)SC(N)=N2 (stereo not drawn) | > 10 | > 10 | > 10 | > 10 | > 10 | > 10 | > 10 | > 10 | > 10 | > 10 | > 10 | – | – | –
COc1ccc2[nH]c3c(O)c(-c4c(C)cc5c([nH]c6ccc(OC)cc65)c4O)c(C)cc3c2c1 | 7.79 | 6.99 | 8.34 | 8.72 | 7.69 | 11.5 | 7.8 | 7.97 | 4.96 | 7.74 | 7.52 | 3.97 | 0.0321 | 3.23
CCCC(C(=O)Nc1cccc2[nH]cnc12)C(=O)OCC (stereo not drawn) | > 100 | > 100 | > 100 | > 100 | > 100 | > 100 | > 100 | > 100 | > 100 | > 100 | > 100 | – | – | –
COc1ccc(NC(=O)NNS(=O)(=O)c2ccc(C)cc2)cc1 | – | > 100 | > 100 | > 100 | > 100 | > 100 | > 100 | > 100 | > 100 | > 100 | > 100 | – | – | –
C1=Cc2cccc3occ(c23)C=C1 | > 100 | > 100 | 43 | > 100 | > 100 | > 100 | > 100 | > 100 | 48.2 | > 100 | 79.4 | – | – | –
COc1cccc(CCn2c(N)c(C#N)c3ccc([N+](=O)[O-])cc3c2=O)c1 | > 31.6 | > 46.4 | 0.922 | > 100 | > 46.4 | > 46.4 | > 31.6 | > 46.4 | > 46.4 | > 31.6 | > 31.6 | – | – | –
CC1(C)CCC[C@@]2(C)C1CC[C@@]1(CO1)[C@@H]2/C=C\C(C=O)CC=O (stereo partly drawn) | > 100 | > 100 | 99.2 | > 100 | > 100 | > 100 | > 100 | > 100 | > 74.4 | > 100 | 62.2 | – | – | –

SMILES | TGI (OVCAR-3 ovarian) [µM] | TGI (HCC-2998 colon) [µM] | TGI (SR leukemia) [µM] | TGI (SNB-19 CNS) [µM] | TGI (PC-3 prostate) [µM] | TGI (HS 578T breast) [µM] | TGI (EKVX NSCLC) [µM] | TGI (DU-145 prostate) [µM] | TGI (HL-60(TB) leukemia) [µM] | TGI (KM12 colon) [µM] | TGI (MOLT-4 leukemia) [µM] | GI50 (SR leukemia) [µM] | GI50 (HL-60(TB) leukemia) [µM] | GI50 (MOLT-4 leukemia) [µM]
Cc1ccc(CN2CCN(Cc3ccc(C)o3)C(C)C2)o1 (stereo not drawn) | > 100 | > 100 | > 100 | > 100 | > 100 | > 100 | > 100 | > 100 | > 100 | > 100 | > 100 | – | – | –
CC(=O)OC(C)c1cc2c(s1)C(=O)c1ccsc1C2=O (stereo not drawn) | 0.192 | 1.54 | 0.365 | 0.317 | 0.201 | 0.422 | 2.74 | 0.242 | 0.0364 | 0.306 | 0.684 | – | – | –
COc1cc(C(=O)OC2CC34CCNC35CC(OC5(OC)C2O)c2cc3c(cc24)OCO3)ccc1O (stereo not drawn) | > 100 | > 100 | > 100 | > 100 | > 100 | > 100 | > 100 | > 100 | > 100 | > 100 | > 100 | – | – | –
N#Cc1c(N)c2c(c(-c3ccccc3)c1-c1ccccc1)C(=O)N(O)C2=O | > 100 | > 100 | > 100 | > 100 | 48.1 | 99.6 | > 100 | > 100 | > 100 | 83.5 | > 100 | – | – | –
COC(=O)C1=COC2OC3CC1C2C(C)O3 (stereo not drawn) | > 100 | > 100 | > 100 | > 100 | > 100 | > 100 | > 100 | > 100 | > 100 | > 100 | > 100 | – | – | –
COC(=O)/C(C#N)=C/c1cc(C(C)(C)C)c(O)c(C(C)(C)C)c1 | 5.55 | 7.8 | 11 | > 100 | 6.78 | > 37 | 11.9 | > 100 | 4.47 | 19.9 | > 29.6 | – | – | –
Cc1ccc(S(=O)(=O)NNC(=O)Nc2ccc([N+](=O)[O-])cc2)cc1 | 78.2 | > 100 | > 100 | > 100 | > 100 | > 100 | > 100 | > 100 | > 100 | > 100 | > 100 | – | – | –
O=c1[nH]c(=O)n(C2CC(O)C(COP(=O)(OCC(Cl)(Cl)Cl)OCC(Cl)(Cl)Cl)O2)cc1F (stereo not drawn) | > 100 | 1.62 | > 100 | > 100 | > 100 | > 100 | > 100 | > 100 | 51 | > 100 | > 100 | – | – | –
CC(C)CC1NC(=O)CCC(NC(=O)C(Cc2ccc(O)cc2)NC(=O)OCc2ccccc2)C(=O)NC(Cc2ccccc2)C(=O)NC(Cc2ccccc2)NC1=O (stereo not drawn) | > 100 | > 100 | > 100 | > 100 | > 100 | > 100 | > 100 | > 100 | > 100 | > 100 | > 100 | – | – | –
COc1cc(-c2ccccc2)cn2c1nc1ccccc12 | 40.8 | 33.7 | 99.6 | 69.3 | 50.8 | 71.4 | – | > 100 | 53.2 | 36.1 | 45.9 | – | – | –
Cc1ccc2c(c1)CC1(C2)Cc2ccc(C)cc2C1=O (stereo not drawn) | > 100 | 85 | 57 | > 100 | > 100 | > 100 | 88.7 | > 100 | 63.4 | 53.6 | 45.7 | – | – | –
COc1cc(OC)nc(-n2c(N)c(C(=O)O)c3ccc([N+](=O)[O-])cc3c2=O)n1 | > 100 | > 100 | > 100 | > 100 | > 100 | > 100 | > 100 | > 100 | > 100 | > 100 | > 100 | – | – | –
O=Cc1ccc(-c2ccc(S(=O)(=O)O)cc2)o1 | > 100 | > 100 | > 100 | > 100 | > 100 | > 100 | > 100 | > 100 | > 100 | > 100 | > 100 | – | – | –
CC12CCC(=O)[C@@]1(C)CCCC2O (stereo partly drawn) | – | > 100 | > 100 | > 100 | > 100 | > 100 | > 100 | > 100 | > 100 | > 100 | > 100 | – | – | –
C=CCN1C(=O)CS/C1=N\NC(=O)CSc1nc2ccccc2c(=O)n1CC | > 100 | > 100 | > 100 | > 100 | > 100 | > 100 | > 100 | > 100 | > 100 | > 100 | > 100 | – | – | –
CCOC(=O)c1nc2cc(F)cc(F)c2[nH]c1=O | > 100 | > 100 | > 100 | > 100 | > 100 | > 100 | – | > 100 | > 100 | > 100 | > 100 | – | – | –
